Assay [1] deals with Serine/threonine-protein kinase SIK3 (Homo sapiens, UniProt Q9Y2K2).
Assay [2] deals with T1, Mitogen-activated protein kinase kinase kinase kinase 3 (Homo sapiens, UniProt Q8IVH8).
T1 sequence (Q8IVH8 whole entry): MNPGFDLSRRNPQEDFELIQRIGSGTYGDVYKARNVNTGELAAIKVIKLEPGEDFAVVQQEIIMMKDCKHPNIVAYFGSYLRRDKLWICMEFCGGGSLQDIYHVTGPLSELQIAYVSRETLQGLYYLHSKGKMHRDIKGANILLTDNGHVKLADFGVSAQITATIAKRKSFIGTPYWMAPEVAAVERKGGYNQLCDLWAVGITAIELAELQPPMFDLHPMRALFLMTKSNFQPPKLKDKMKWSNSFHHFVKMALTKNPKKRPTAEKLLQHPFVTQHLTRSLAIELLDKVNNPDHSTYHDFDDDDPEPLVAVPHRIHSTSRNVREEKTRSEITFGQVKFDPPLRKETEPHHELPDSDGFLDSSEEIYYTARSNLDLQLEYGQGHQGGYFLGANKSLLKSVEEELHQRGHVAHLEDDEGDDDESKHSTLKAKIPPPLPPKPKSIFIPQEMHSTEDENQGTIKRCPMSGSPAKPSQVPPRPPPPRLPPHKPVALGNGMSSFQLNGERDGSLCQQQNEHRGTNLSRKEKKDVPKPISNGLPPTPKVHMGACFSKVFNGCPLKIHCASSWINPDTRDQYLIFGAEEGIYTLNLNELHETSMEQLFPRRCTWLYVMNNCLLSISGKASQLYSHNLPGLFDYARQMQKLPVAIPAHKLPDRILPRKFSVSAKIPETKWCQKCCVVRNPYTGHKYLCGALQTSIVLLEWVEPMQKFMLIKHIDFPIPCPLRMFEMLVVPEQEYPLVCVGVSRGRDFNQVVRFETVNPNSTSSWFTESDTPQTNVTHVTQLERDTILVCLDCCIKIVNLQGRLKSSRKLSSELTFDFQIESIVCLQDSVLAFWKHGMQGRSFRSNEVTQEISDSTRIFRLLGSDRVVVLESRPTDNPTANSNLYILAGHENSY

Assay [3] has as its target Cyclin-dependent kinase 4 (Homo sapiens, UniProt P11802).
For assay [4], the target named is T2, Membrane-associated tyrosine- and threonine-specific cdc2-inhibitory kinase (Homo sapiens, UniProt Q99640).
T2 sequence (Q99640 whole entry): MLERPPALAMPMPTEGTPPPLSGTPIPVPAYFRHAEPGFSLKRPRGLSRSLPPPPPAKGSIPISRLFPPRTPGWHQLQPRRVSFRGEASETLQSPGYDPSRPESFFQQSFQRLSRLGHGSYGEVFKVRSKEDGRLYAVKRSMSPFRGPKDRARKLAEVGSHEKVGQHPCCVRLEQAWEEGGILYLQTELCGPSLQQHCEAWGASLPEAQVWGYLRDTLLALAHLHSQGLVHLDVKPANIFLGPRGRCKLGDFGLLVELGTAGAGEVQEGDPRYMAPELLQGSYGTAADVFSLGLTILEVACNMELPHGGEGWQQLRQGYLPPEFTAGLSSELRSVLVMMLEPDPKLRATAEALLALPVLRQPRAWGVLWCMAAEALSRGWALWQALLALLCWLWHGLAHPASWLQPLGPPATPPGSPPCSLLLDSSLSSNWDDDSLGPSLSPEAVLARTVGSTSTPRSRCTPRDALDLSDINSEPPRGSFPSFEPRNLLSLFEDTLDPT

For assay [5], the target named is T3, Beta-adrenergic receptor kinase 1 (Homo sapiens, UniProt P25098).
T3 sequence (P25098 whole entry): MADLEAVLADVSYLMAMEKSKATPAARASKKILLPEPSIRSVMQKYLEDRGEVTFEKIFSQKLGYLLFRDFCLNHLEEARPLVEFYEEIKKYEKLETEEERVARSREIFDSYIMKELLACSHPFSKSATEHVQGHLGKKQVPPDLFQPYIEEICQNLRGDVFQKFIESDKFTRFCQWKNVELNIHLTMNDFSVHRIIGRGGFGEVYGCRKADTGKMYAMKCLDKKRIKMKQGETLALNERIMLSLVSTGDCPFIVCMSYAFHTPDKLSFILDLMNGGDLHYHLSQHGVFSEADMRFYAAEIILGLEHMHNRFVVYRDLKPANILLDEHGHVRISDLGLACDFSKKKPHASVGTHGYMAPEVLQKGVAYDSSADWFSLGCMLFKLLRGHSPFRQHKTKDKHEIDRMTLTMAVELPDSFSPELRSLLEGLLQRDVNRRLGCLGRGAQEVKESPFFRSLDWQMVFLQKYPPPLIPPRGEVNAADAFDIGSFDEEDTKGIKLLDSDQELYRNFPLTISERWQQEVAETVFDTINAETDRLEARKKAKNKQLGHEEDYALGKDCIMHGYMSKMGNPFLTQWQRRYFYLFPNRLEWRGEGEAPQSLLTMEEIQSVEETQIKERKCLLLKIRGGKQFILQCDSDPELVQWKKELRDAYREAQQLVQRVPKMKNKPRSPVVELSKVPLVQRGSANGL

For assay [6], the target named is Cyclin-dependent kinase 3 (Homo sapiens, UniProt Q00526).
Chain of Cyclin-dependent kinase 3 (Q00526 whole entry): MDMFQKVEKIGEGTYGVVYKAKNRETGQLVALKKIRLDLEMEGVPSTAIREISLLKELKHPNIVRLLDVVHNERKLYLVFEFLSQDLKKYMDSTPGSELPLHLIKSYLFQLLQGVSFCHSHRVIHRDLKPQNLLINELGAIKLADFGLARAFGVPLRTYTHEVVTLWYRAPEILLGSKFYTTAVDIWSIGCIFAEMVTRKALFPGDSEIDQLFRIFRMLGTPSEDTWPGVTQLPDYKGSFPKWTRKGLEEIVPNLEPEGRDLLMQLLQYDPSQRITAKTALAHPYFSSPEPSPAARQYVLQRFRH
In assay [7] the target is Mitogen-activated protein kinase 7 (Homo sapiens, UniProt Q13164).
Chain of Mitogen-activated protein kinase 7 (Q13164 whole entry): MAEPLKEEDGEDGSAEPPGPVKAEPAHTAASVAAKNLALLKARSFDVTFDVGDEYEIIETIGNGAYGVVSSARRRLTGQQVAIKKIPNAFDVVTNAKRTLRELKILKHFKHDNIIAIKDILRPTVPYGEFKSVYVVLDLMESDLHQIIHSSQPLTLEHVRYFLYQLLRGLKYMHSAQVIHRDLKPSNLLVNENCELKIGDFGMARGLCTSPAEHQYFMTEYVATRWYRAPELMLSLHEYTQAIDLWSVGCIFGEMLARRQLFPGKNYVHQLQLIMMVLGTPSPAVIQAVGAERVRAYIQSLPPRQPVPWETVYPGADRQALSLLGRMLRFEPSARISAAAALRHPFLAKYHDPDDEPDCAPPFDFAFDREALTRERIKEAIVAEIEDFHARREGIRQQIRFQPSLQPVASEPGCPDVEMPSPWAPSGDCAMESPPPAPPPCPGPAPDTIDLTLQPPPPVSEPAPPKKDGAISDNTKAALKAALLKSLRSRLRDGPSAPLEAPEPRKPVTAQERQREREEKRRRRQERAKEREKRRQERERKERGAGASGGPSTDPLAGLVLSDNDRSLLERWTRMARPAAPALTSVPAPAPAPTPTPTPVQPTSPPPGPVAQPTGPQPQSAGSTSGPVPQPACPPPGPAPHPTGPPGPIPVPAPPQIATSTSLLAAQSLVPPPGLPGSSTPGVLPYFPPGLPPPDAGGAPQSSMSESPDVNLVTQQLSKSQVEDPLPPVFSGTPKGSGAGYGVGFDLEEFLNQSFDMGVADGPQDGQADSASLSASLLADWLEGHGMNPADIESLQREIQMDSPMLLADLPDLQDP

SMILES strings stand for the structures. Active and inactive are the calls of the source.
Also: in the data inactive means no Kd found up to 30 µM.

Chain of Cyclin-dependent kinase 4 (P11802 whole entry): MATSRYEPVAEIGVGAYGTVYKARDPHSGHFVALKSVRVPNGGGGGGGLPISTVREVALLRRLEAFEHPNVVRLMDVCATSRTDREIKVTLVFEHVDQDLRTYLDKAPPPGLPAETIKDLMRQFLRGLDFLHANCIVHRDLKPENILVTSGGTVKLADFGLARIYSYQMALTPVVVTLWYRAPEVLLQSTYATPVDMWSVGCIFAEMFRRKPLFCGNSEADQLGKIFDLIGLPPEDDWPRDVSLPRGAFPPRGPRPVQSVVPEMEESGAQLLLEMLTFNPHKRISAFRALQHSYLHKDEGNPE
Chain of Serine/threonine-protein kinase SIK3 (Q9Y2K2 whole entry): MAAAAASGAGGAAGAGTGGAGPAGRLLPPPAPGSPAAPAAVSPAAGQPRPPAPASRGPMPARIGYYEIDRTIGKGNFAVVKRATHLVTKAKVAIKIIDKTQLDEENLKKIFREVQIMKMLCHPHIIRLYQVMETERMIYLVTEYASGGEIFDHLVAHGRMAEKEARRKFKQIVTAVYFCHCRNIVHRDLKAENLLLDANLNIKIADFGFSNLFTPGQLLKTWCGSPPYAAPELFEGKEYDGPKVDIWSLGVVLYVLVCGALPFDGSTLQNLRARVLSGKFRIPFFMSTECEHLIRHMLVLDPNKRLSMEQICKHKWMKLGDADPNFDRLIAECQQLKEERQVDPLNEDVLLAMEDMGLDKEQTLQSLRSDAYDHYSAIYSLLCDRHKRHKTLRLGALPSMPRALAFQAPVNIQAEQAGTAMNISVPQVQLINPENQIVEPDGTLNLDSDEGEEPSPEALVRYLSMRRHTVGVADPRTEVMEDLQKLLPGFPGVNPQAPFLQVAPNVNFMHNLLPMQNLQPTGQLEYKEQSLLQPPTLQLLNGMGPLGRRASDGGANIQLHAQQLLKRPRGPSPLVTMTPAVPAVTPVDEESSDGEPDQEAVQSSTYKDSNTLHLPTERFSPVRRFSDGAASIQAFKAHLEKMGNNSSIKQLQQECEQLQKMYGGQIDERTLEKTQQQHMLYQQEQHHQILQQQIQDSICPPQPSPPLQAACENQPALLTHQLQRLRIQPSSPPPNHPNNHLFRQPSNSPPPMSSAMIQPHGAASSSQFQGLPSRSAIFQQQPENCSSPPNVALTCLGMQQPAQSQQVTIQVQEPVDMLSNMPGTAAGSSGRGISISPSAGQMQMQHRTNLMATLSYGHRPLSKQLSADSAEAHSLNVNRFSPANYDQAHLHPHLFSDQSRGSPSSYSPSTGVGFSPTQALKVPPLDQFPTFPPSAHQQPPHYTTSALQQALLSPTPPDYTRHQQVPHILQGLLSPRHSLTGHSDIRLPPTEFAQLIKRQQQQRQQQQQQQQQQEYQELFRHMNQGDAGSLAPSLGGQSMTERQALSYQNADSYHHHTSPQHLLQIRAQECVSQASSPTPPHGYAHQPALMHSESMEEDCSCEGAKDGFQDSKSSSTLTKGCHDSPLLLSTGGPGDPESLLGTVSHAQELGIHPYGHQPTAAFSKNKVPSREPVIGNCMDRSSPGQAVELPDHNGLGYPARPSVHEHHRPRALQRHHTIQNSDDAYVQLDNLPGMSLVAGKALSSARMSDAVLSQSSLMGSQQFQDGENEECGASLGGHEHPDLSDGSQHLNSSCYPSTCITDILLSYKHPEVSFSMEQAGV

In the case of `CC[C@@H]1C(=O)N(C)c2cnc(Nc3ccc(C(=O)N[C@H]4CC[C@H](N5CCN(CC6CC6)CC5)CC4)cc3OC)nc2N1C(C)C` [VOLASERTIB], the Kd in assay [1], in assay [2], in assay [3], in assay [4], in assay [5] and in assay [6] was > 30 µM (inactive) each time. Also, in assay [7], the Kd (in general, the equilibrium constant for the complex coming apart) was > 30 µM (inactive).
Consider `OCCn1cc(-c2cnc3nnn(Cc4ccc5ncccc5c4)c3n2)cn1` [PF-04217903], for which the Kd in assay [1], in assay [2], in assay [3], in assay [4], in assay [5] and in assay [6] was > 30 µM (inactive) in each case. Also, in assay [7], the Kd is > 30 µM (inactive).
With `CCCS(=O)(=O)Nc1ccc(F)c(C(=O)c2c[nH]c3ncc(-c4ccc(Cl)cc4)cc23)c1F` [VEMURAFENIB], the Kd in assay [1], in assay [2], in assay [3], in assay [4], in assay [5] and in assay [6] was > 30 µM (inactive) each time. In addition, the Kd in assay [7] is > 30 µM (inactive).
In the case of `Cn1ncc(Cl)c1-c1cc(C(=O)N[C@H](CN)Cc2cccc(F)c2)sc1Cl` [AFURESERTIB], the Kd in assay [1], in assay [2], in assay [3], in assay [4], in assay [5] and in assay [6] was > 30 µM (inactive) throughout. The Kd in assay [7] is > 30 µM (inactive).
Regarding `CNS(=O)(=O)Nc1nccc(Cc2c(C)c3ccc(Oc4ncccn4)cc3oc2=O)c1F` [AVUTOMETINIB], the Kd in assay [1], in assay [2], in assay [3], in assay [4], in assay [5] and in assay [6] was > 30 µM (inactive) throughout. The Kd in assay [7] is > 30 µM (inactive).
In the case of `O=C(O)[C@]1(Cc2cccc(Nc3nccs3)n2)CC[C@@H](Oc2cccc(Cl)c2F)CC1` [MK-5108], the Kd in assay [1], in assay [2], in assay [3], in assay [4], in assay [5] and in assay [6] was > 30 µM (inactive) each time. Further, the Kd in assay [7] is > 30 µM (inactive).
With `COc1cc(CCc2cc(NC(=O)c3ccc(N4C[C@@H](C)N[C@@H](C)C4)cc3)n[nH]2)cc(OC)c1` [AZD-4547], the Kd in assay [1] is > 30 µM (inactive); in assay [2] it was 0.049 µM (active); in assay [3] it was > 30 µM (inactive); in assay [4], > 30 µM (inactive); in assay [5], > 30 µM (inactive); in assay [6], > 30 µM (inactive). Moreover, in assay [7], the Kd was > 30 µM (inactive).
`O=C(Nc1cccc(Cl)c1)Nc1ncc(CCNc2ncnc3ccsc23)s1` [SNS-314]: the Kd in assay [1], in assay [2], in assay [3], in assay [4] and in assay [6] was > 30 µM (inactive) throughout.
Take `CNC(=O)c1ccc(C)c(-n2c(C)cc(OCc3ccc(F)cc3F)c(Br)c2=O)c1` [PH-797804]: the Kd in assay [1], in assay [2], in assay [3], in assay [4], in assay [5] and in assay [6] was > 30 µM (inactive) each time. Also, the Kd in assay [7] was > 30 µM (inactive).
`Cc1nc(N)sc1-c1ccnc(Nc2ccc(N3CCOCC3)cc2)n1` [CYC-116]: the Kd in assay [4], in assay [5] and in assay [7] was > 30 µM (inactive) throughout.

For the origin of these results see ChEMBL document CHEMBL3991601, “The target landscape of clinical kinase drugs” (Science, 2017).
